In patent US20130059888A1:
Where a name gives a salt, the structure may show the parent alone. Read-outs that look alike come from different tables or passages of the source.

Legend:
[1] = tested on: Alzheimer-type dementia patients; details: cited from earlier work; for Improving effect on the behavioral and psychological symptoms such as agitation: solely administered, Am. J. Geriatr. Psychiatry 2005
[2] = tested on: Alzheimer-type dementia; details: donepezil hydrochloride alone; cited from earlier work
[3] = tested on: Alzheimer-type dementia patients
Method: Patient. […] After 11 months from the start of the donepezil hydrochloride administration, concomitant administration of sustained release tablets of sodium valproate (twice a day after breakfast and dinner with 200 mg tablet×2) was started.
Patient. […] After 35 months from the start of the donepezil hydrochloride administration, concomitant administration of sustained release tablets of sodium valproate (twice a day after breakfast and dinner with 200 mg tablet×2) was started.
Patient. […] Concomitant administration of sustained release tablets of sodium valproate (twice a day after breakfast and dinner with 200 mg tablet×2) was started 48 months after the start of the donepezil hydrochloride administration. […] Sustained release tablets of sodium valproate (200 mg tablet×3) were administered from eight months after the start of the concomitant administration.

Row | SMILES | Side reactions ([1]; general statement on valproic acid and a salt thereof) | Improving effect on the behavioral and psychological symptoms such as agitation [1] | Duration of improving action against the cognitive symptoms [2] | Effect on the cognitive symptoms [2] | Problem behaviors ([3]; Example 1 patient, donepezil alone 5 mg once a day, two months from start) | Symptoms observed ([3]; Example 2 patient, donepezil alone 5 mg once a day, two months after start) | Symptoms observed ([3]; Example 2 patient, donepezil alone, four months after start) | Symptoms observed ([3]; Example 3 patient, donepezil alone 5 mg once a day, 15 months after start) | Symptoms observed ([3]; Example 3 patient, donepezil alone, 23 months after start) | Symptoms observed ([3]; Example 3 patient, donepezil alone, 25 months after start) | Symptoms observed ([3]; Example 4 patient, donepezil alone 5 mg once a day, two months after start) | Inspection findings ([3]; Example 5 patient, donepezil alone 5 mg once a day, 24 months after start) | Symptoms observed ([3]; Example 5 patient, donepezil alone, 41 months after start) | Cognitive disorder ([3]; Example 5 patient, donepezil alone, thirty nine months after start)
1 | CCCC(CCC)C(=O)O [valproic acid] | little side reactions such as sleepiness | does not exhibit any improving effect |  |  |  |  |  |  |  |  |  |  |  | 
2 | CCCC(CCC)C(=O)[O-].[Na+] [sodium valproate] |  | no improving effect |  |  |  |  |  |  |  |  |  |  |  | 
3 | COc1cc2c(cc1OC)C(=O)C(CC1CCN(Cc3ccccc3)CC1)C2 (stereo not drawn) [donepezil hydrochloride] |  |  | about one year at the longest | certain effects for retarding onset or relieving of the cognitive symptoms | did not subside | symptoms of incontinentia and the like were observed | visual hallucination, incontinentia, aggressive attitude and the like were observed | dressing apraxia was observed | visual hallucination, soliloquy, emotional attitude, dressing apraxia, and stereotypy were observed | visual hallucination, delusion of persecution and the like | visual hallucination was not observed, but they spoke only their events in the old days and showed stereotypy | atrophy of the hippocampus was marked | refusal of oral administration of medicaments, soliloquy and dressing apraxia | advanced
